Test results reported in the supplement of paper PMC10307832.

Experiments:
Test in all cases: relative viability (nuclei count vs DMSO), 5 days (fraction); higher = more cells survive
[1] = compound: CCOC1=CC=CC=C1N=NC2=C(NN(C2=O)C3=NC(=CS3)C4=CC=CC=C4)C [BAM7] + CC(=O)Nc1cccc(-n2c(=O)n(C3CC3)c(=O)c3c(Nc4ccc(I)cc4F)n(C)c(=O)c(C)c32)c1 [Trametinib] (partner 0.02 µM)
Method in brief: (§1)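 Medians of duplicate plates are given as relative viability. That measure is the nuclei count in treated wells divided by the count in vehicle wells. Counts were taken on 4× images of lung cancer cell lines in 1536-well plates, 5 days after pin-tool dosing the day after seeding with one drug alone or a fixed anchor-drug dose plus five library-drug doses (not always all listed) in √10 steps.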

[2] = compound: CCOC1=CC=CC=C1N=NC2=C(NN(C2=O)C3=NC(=CS3)C4=CC=CC=C4)C [BAM7] + Cc1nc(Nc2ncc(C(=O)Nc3c(C)cccc3Cl)s2)cc(N2CCN(CCO)CC2)n1 [Dasatinib] (partner 0.075 µM)
Method in brief: as §1

[3] = compound: CCn1c(-c2nonc2N)nc2c(C#CC(C)(C)O)ncc(OC[C@H]3CCCNC3)c21 + COc1cccc2cc(-c3nc([C@H]4CC[C@H](C(=O)O)CC4)n4ncnc(N)c34)[nH]c12 [OSI-027] (partner 0.5 µM)
Method in brief: as §1

[4] = compound: CCn1c(-c2nonc2N)nc2c(C#CC(C)(C)O)ncc(OC[C@H]3CCCNC3)c21 + CS(=O)(=O)N1CCN(Cc2cc3nc(-c4cccc5[nH]ncc45)nc(N4CCOCC4)c3s2)CC1 [Pictilisib] (partner 1 µM)
Method in brief: as §1

UMC-11
relative viability ([1]; first compound 0.5 µM): 0.694 | relative viability ([1]; first compound 5 µM): 0.83 | relative viability ([1]; first compound 15.81 µM): 0.728 | relative viability ([1]; first compound 50 µM): 0.71 | relative viability ([2]; first compound 0.5 µM): 0.511 | relative viability ([2]; first compound 5 µM): 0.509 | relative viability ([2]; first compound 15.81 µM): 0.449 | relative viability ([2]; first compound 50 µM): 0.479 | relative viability ([3]; first compound 0.01 µM): 0.512 | relative viability ([3]; first compound 0.03162 µM): 0.489 | relative viability ([3]; first compound 0.1 µM): 0.515 | relative viability ([3]; first compound 0.3162 µM): 0.423 | relative viability ([3]; first compound 1 µM): 0.496 | relative viability ([4]; first compound 0.01 µM): 0.778 | relative viability ([4]; first compound 0.03162 µM): 0.681 | relative viability ([4]; first compound 0.1 µM): 0.771 | relative viability ([4]; first compound 0.3162 µM): 0.758 | relative viability ([4]; first compound 1 µM): 0.935
